Bridge positions count the residues as written; N and C are the ends. Peptide text beside a SMILES is read from it.
Key:
[1] = tested on: endogenous KLK5 of healthy donor keratinocytes; experiment: KLK5 protease activity assay for culture medium of healthy donor keratinocytes; assay type: biochemical, human; conditions: 100 nM, 1 μM, 10 μM; p > 0.05, n = 9
Experimental: To evaluate the inhibition of lead 7 on endogenous KLK5 activity, media collected from cultured NS keratinocytes and healthy donor keratinocytes were incubated with lead 7 at the final concentration of 100 nM, or 1 μM, or 10 μM for one hour. Media were then concentrated, and KLK5 activity was measured. […] There were significant differences in KLK5 activity before and after treatment (p < 0.05, n = 3). […] This may be because lead 7 exerts inhibitory effects only when KLK5 activity exceeds a certain threshold, which is not reached in keratinocytes from healthy donors. It was noted that the activity of KLK5 in NS was not reduced to the levels observed in normal keratinocytes. […]
calcium signalling. […] Fluorescence excitation was set at 485 nm, and emission was recorded at 520 nm using SpectraMax® i3x plate reader. […]
Keratinocytes were seeded in 6 well plate with the density of 0.2 × 10⁶ cells per well and cultured in RM+ medium until they reached confluency. […] The enzymatic reaction was initiated by adding 100 µL of Boc-VPR-AMC substrate (final concentration 100 µM) to each well and RFU values in samples were measured. Protease activities were expressed as nmol/g by first converting RFU readings to KLK5 equivalent concentration activity using a KLK5 standard curve, followed by normalization to total protein content

NS keratinocytes = experiment: Transepithelial electrical resistance (TEER) assay, NS keratinocytes; assay type: cell-based, human; conditions: 1 μM, 9 days, p < 0.05, n = 18
Source text: KLK5 regulates epidermal barrier homeostasis by targeting corneodesmosomal proteins involved in cell–cell adhesion, including desmoglein-1 (DSG1), desmocollin-1 (DSC1), and corneodesmosin (CDSN). Dysregulated KLK5 activity can accelerate the degradation of these adhesion molecules, leading to impaired corneocyte cohesion and disruption of the epithelial barrier. To assess whether control of KLK5 activity by lead 7 could improve barrier integrity, the resistance of epidermal sheets generated using NS and healthy donor keratinocytes was measured using a transepithelial electrical resistance (TEER) assay. Keratinocytes from NS keratinocyte and three healthy donors were seeded in 6-well plates and cultured in the medium with 1 μM of lead 7 or without. The medium was replaced every 3 days with fresh lead 7 added in the treated groups. TEER measurements were performed every other day, and cultures were maintained until TEER values reached a plateau (9 days).
Transepithelial Electrical Resistance (TEER) assay […]
Transepithelial electrical resistance (TEER) values in ohms (Ω) were measured using the EVOM™ Manual Resistance Meter (World Precision Instruments, cat no. EVM-MT-03-02). Background resistance was first recorded using inserts containing only medium (without cells). […]
One-way ANOVA was used for KLK5 activity study. […] TEER study data was analysed using the Wilcoxon […]

## C[C@@H](O)[C@@H]1NC(=O)[C@@H]2CSSC[C@H](NC(=O)[C@H](CCC(=O)O)NC(=O)[C@@H]3CCCN3C(=O)[C@@H]3CCCN3C(=O)[C@H](CC(N)=O)NC(=O)[C@H](CO)NC(=O)[C@H](CCCNC(=N)N)NC1=O)C(=O)N[C@@H](Cc1c[nH]c3ccccc13)C(=O)N1CCC[C@H]1C(=O)N[C@@H](CC(N)=O)C(=O)NCC(=O)N[C@@H](Cc1ccccc1)C(=O)N2 [compound 7] (cyclo(GFCTRSNPPECWPN); disulfide 3-11)
[1]
  KLK5 activity before and after treatment, normal donor keratinocytes: no significant differences
NS keratinocytes
  TEER, treated versus untreated NS keratinocytes: obvious increase in TEER values
